# Assay results reported in ChEMBL document CHEMBL5291721, “A preclinical secondary pharmacology resource illuminates target-adverse drug reaction associations of marketed drugs” (Nat Commun, 2023).
# Legend:
# [1] = molecular target: Beta-3 adrenergic receptor (Homo sapiens, UniProt P13945)
# [2] = molecular target: T1, Alpha-1A adrenergic receptor (Homo sapiens, UniProt P35348); type: functional, cell-based
# T1 sequence (P35348 whole entry): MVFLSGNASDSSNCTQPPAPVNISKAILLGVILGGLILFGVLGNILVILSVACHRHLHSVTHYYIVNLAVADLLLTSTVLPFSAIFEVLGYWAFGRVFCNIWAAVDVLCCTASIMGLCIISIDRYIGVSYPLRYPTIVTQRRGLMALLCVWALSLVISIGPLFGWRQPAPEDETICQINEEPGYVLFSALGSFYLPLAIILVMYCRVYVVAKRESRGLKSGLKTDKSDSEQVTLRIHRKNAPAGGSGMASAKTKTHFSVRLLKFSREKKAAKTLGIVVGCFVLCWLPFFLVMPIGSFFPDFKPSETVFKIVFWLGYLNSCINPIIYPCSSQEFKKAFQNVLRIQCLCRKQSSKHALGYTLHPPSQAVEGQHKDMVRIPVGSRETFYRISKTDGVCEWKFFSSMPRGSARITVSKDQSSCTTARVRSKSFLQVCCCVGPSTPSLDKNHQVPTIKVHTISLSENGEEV
# [3] = molecular target: Beta-2 adrenergic receptor (Homo sapiens, UniProt P07550); type: functional, cell-based
# Histamine H1 receptor = Histamine H1 receptor (Homo sapiens, UniProt P35367)
# [4] = molecular target: T1, Alpha-1A adrenergic receptor
# [5] = molecular target: T2, Alpha-2A adrenergic receptor (Homo sapiens, UniProt P08913); type: functional, cell-based
# T2 sequence (P08913 whole entry): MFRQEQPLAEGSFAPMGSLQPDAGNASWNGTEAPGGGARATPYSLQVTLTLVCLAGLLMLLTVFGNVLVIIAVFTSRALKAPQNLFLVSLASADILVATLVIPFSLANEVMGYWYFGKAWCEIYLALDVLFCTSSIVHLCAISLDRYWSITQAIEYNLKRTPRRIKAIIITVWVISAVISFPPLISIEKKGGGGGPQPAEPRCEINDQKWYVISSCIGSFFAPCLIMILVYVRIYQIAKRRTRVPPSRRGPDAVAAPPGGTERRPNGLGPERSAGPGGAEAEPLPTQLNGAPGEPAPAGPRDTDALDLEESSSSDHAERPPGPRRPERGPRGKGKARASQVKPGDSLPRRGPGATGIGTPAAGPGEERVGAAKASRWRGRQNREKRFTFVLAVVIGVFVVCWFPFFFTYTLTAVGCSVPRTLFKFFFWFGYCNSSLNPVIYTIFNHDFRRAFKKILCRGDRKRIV
# Adenosine receptor A1 = molecular target: T3, Adenosine receptor A1 (Homo sapiens, UniProt P30542)
# T3 sequence (P30542 whole entry): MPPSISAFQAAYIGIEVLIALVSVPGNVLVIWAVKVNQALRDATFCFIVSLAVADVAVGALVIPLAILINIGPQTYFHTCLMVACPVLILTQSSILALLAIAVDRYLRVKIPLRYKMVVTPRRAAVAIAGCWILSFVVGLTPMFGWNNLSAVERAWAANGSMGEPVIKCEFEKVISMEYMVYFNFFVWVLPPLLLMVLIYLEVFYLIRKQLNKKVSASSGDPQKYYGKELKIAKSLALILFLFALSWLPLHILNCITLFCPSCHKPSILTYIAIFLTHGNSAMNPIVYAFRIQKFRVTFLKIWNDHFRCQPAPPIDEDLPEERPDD
# Histamine H2 receptor = Histamine H2 receptor (Homo sapiens, UniProt P25021)
# Melanocortin receptor 4 = Melanocortin receptor 4 (Homo sapiens, UniProt P32245)
# Cannabinoid receptor 1 = Cannabinoid receptor 1 (Homo sapiens, UniProt P21554)
# [6] = molecular target: T4, Gastric inhibitory polypeptide receptor (Homo sapiens, UniProt P48546)
# T4 sequence (P48546 whole entry): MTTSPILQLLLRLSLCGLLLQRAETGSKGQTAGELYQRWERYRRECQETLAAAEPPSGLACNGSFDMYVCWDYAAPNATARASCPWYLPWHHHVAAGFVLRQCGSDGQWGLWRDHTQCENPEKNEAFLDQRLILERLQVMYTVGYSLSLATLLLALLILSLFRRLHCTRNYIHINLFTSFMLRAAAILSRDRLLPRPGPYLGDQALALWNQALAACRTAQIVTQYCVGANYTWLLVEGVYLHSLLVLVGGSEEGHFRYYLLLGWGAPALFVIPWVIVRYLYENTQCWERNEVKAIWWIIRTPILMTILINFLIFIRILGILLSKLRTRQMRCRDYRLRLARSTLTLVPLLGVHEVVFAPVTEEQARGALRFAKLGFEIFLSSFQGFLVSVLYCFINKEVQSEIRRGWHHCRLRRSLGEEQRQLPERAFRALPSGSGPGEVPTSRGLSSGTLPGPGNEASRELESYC
# [7] = molecular target: T5, Cholecystokinin receptor type A (Homo sapiens, UniProt P32238)
# T5 sequence (P32238 whole entry): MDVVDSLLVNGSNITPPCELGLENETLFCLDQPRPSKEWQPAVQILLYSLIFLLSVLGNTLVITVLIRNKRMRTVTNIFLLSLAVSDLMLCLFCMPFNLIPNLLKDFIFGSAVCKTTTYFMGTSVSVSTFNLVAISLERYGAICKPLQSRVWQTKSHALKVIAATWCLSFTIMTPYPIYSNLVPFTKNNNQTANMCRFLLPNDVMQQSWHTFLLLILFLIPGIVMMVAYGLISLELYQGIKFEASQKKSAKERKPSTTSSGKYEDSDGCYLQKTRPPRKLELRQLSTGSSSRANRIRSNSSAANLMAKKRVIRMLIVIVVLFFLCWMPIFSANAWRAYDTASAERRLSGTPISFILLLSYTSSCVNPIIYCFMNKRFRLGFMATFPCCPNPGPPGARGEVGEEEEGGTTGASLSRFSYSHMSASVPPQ
# Mu-type opioid receptor = Mu-type opioid receptor (Homo sapiens, UniProt P35372)
# Note: assay procedure not described here.
# Sequence of Beta-2 adrenergic receptor (P07550 whole entry): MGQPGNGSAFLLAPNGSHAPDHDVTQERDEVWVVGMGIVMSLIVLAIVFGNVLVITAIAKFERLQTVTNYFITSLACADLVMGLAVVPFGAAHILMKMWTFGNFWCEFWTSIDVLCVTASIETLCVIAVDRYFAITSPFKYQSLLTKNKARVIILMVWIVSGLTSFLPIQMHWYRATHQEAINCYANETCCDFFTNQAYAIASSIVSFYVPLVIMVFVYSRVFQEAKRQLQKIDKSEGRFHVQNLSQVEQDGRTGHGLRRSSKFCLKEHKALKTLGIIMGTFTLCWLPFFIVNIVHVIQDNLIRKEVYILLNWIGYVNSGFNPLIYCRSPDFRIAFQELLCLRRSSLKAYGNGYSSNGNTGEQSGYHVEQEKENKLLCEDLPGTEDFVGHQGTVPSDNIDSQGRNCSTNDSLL
# Sequence of Histamine H1 receptor (P35367 whole entry): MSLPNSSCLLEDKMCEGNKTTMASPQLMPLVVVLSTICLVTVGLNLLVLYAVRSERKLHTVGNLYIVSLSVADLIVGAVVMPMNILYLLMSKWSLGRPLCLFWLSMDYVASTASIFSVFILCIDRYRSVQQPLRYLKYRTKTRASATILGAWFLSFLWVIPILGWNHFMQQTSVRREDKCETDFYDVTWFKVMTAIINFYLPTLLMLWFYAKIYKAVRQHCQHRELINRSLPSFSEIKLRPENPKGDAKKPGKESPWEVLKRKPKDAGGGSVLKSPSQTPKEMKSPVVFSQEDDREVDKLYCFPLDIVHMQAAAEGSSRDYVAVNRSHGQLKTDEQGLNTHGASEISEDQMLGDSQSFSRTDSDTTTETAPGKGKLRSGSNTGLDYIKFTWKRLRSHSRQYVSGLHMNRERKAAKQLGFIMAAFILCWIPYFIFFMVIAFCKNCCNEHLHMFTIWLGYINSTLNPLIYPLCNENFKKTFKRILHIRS
# Sequence of Melanocortin receptor 4 (P32245 whole entry): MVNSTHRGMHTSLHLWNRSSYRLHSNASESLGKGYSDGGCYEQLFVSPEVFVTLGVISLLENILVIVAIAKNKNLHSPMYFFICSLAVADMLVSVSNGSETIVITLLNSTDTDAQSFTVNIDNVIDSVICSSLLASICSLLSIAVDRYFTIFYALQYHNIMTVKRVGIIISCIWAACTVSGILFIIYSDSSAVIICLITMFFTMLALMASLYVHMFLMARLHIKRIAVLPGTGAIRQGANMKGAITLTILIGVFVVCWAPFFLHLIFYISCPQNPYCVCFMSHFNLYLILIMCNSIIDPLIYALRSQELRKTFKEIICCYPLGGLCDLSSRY
# Sequence of Cannabinoid receptor 1 (P21554 whole entry): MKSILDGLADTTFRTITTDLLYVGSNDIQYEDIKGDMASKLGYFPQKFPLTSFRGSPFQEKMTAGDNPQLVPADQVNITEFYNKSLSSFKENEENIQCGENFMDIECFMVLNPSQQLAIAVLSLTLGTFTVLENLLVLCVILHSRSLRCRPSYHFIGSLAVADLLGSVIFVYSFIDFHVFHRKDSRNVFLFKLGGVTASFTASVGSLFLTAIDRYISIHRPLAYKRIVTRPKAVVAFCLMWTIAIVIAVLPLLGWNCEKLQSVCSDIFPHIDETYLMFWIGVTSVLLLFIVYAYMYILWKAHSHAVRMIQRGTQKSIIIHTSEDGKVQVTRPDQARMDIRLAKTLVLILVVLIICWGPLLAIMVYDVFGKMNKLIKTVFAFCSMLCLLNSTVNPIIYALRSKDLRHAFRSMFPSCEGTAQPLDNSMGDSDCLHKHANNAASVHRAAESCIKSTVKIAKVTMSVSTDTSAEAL
# Sequence of Histamine H2 receptor (P25021 whole entry): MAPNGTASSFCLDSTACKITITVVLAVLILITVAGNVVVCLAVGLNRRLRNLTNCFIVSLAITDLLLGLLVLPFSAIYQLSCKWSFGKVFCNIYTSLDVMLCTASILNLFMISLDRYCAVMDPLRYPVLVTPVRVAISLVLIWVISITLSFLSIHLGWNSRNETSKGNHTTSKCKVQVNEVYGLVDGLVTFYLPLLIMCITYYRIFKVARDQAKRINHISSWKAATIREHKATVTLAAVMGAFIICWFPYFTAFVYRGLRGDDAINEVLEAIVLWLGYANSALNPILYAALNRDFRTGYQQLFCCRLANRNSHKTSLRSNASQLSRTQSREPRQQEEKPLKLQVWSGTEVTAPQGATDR
# Sequence of Mu-type opioid receptor (P35372 whole entry): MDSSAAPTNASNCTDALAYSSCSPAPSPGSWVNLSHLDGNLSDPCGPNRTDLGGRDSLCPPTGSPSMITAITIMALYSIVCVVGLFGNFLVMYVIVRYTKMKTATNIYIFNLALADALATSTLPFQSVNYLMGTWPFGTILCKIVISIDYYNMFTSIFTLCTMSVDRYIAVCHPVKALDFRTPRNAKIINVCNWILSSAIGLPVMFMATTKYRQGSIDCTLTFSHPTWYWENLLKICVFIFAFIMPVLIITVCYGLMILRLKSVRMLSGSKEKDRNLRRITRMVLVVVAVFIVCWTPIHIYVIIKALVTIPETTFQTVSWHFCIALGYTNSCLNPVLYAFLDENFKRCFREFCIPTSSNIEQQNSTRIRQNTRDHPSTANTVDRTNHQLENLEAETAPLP
# Sequence of Beta-3 adrenergic receptor (P13945 whole entry): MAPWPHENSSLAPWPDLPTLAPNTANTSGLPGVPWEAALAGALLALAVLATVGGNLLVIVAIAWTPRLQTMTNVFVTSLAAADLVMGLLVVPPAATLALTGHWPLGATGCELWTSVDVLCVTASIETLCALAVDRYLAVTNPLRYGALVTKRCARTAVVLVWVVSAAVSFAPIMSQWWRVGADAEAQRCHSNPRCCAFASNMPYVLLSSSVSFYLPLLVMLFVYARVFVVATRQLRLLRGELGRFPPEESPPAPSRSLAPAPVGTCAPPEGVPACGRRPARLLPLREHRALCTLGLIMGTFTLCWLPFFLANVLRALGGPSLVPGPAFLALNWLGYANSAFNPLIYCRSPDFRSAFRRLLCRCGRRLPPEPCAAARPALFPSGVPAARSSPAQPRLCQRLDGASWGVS
SMILES,AC50 [1] [µM],AC50 [2] [µM],AC50 [3] [µM],AC50 (Histamine H1 receptor) [µM],AC50 [4] [µM],AC50 [5] [µM],AC50 (Adenosine receptor A1) [µM],AC50 (Histamine H2 receptor) [µM],AC50 (Melanocortin receptor 4) [µM],AC50 (Cannabinoid receptor 1) [µM],AC50 [6] [µM],AC50 [7] [µM],AC50 (Mu-type opioid receptor) [µM]
CN(C)C(=O)OC1N=C(c2ccccc2)c2cc(Cl)ccc2N(C)C1=O (centres undefined) [CAMAZEPAM],> 30,> 30,> 30,> 10,> 10,> 10,> 30,> 10,> 30,> 10,> 30,> 30,> 10
Cc1cc(-c2ccccc2)nnc1NCCN1CCOCC1 [MINAPRINE],> 30,> 30,> 30,> 10,> 10,> 10,> 30,> 10,> 30,9.5,> 30,> 30,> 30
Cc1ccc(-c2nc3ccc(C)cn3c2CC(=O)N(C)C)cc1 [ZOLPIDEM],> 30,> 30,> 30,> 30,6.76,> 30,> 30,> 10,> 30,> 30,> 30,> 30,> 10
